Patent US10030006B2, “Coumarin based Hsp90 inhibitors with urea and ether substituents” (University of Kansas, priority 2013, dated 2018)
Where two headings read alike, the source gives them in different places.

What was measured:
[1] = test system: MCF-7 (estrogen receptor positive breast cancer cells); assay: Anti-proliferation assay (MTS/PMS, 72 h), MCF-7; assay type: cell-based
Method: (§1) Cells were maintained in a 1:1 mixture of Advanced DMEM/F12 (Gibco) supplemented with non-essential amino acids, L-glutamine (2 mM), streptomycin (500 μg/mL), penicillin (100 units/mL), and 10% FBS. Cells were grown to confluence in a humidified atmosphere (37° C., 5% CO2), seeded (2000/well, 100 μL) in 96-well plates, and allowed to attach overnight. Compound at varying concentrations in DMSO (1% DMSO final concentration) was added, and cells were returned to the incubator for 72 h. At 72 h, the number of viable cells was determined using an MTS/PMS cell proliferation kit (Promega) per the manufacturer's instructions. Cells incubated in 1% DMSO were used at 100% proliferation, and values were adjusted accordingly. IC50 values were calculated from separate experiments performed in triplicate using GraphPad Prism.
(§2) The anti-proliferative activity of these compounds is evaluated against two breast cancer cell lines, SKBr3 (estrogen receptor negative, Her2 over-expressing breast cancer cells) and MCF-7 (estrogen receptor positive breast cancer cells).

[2] = test system: SKBr3 (estrogen receptor negative, Her2 over-expressing breast cancer cells); assay: Anti-proliferation assay (MTS/PMS, 72 h), SKBr3; assay type: cell-based
Method: as §1, §2

[3] = Table 3, cycloamine analogues, read-out: MCF-7
[4] = Table 3, cycloamine analogues, read-out: SKBr3
[5] = Table 9, non-aryl ureas, Breast Cancer, read-out: IC50 MCF-3
[6] = Table 9, non-aryl ureas, Breast Cancer, read-out: IC50 SKBr3
[7] = Homo sapiens, MCF7, Table 8, biphenyl ureas, Breast Cancer, read-out: IC50 MCF-3
[8] = Homo sapiens, SK-BR-3, Table 8, biphenyl ureas, Breast Cancer, read-out: IC50 SKBr3
[9] = Homo sapiens, MCF7, Table 1, modified benzamide coumarin derivatives, read-out: MCF-7
[10] = Homo sapiens, MCF7, Table 2, modified benzamide and biphenylamide derivatives (in μM), read-out: MCF-7
[11] = Table 10, modified initial novobiocin analogs, read-out: SkBr3, IC50
[12] = Homo sapiens, SK-BR-3, Table 1, modified benzamide coumarin derivatives, read-out: SKBr3
[13] = Homo sapiens, SK-BR-3, Table 2, modified benzamide and biphenylamide derivatives (in μM), read-out: SKBr3
[14] = Homo sapiens, MCF7, Table 4, alkylamino analogues, read-out: MCF-7
[15] = Homo sapiens, SK-BR-3, Table 4, alkylamino analogues, read-out: SKBr3

## CC(=O)Oc1ccc(C(=O)Nc2cc3ccc(OCC4CCCN(C)C4)c(C)c3oc2=O)cc1CC=C(C)C (stereo not drawn)
[1]; [3]
  IC50: 1.65 ± 0.11 µM
[2]; [4]
  IC50: 0.74 ± 0.01 µM

## CC(=O)Oc1ccc(C(=O)Nc2cc3ccc(OCC4CCN(C)C4)c(C)c3oc2=O)cc1CC=C(C)C (stereo not drawn)
[1]; [3]
  IC50: 1.88 ± 0.45 µM
[2]; [4]
  IC50: 0.88 ± 0.09 µM

## CC(=O)Oc1ccc(C(=O)Nc2cc3ccc(OCCC4CCCCN4)c(C)c3oc2=O)cc1CC=C(C)C (stereo not drawn)
[1]; [3]
  IC50: 0.71 ± 0.03 µM
[2]; [4]
  IC50: 0.64 ± 0.06 µM

## CC(=O)Oc1ccc(C(=O)Nc2cc3ccc(OCC4CCCNC4)c(C)c3oc2=O)cc1CC=C(C)C (stereo not drawn)
[1]; [3]
  IC50: 0.82 ± 0.07 µM
[2]; [4]
  IC50: 0.62 ± 0.04 µM

## CC(C)=CCc1cc(C(=O)Nc2cc3ccc(OCCC4CCCCN4)c(C)c3oc2=O)ccc1O (stereo not drawn)
[1]; [3]
  IC50: 0.71 ± 0.03 µM
[2]; [4]
  IC50: 0.64 ± 0.06 µM

## CC(C)=CCc1cc(C(=O)Nc2cc3ccc(OCC4CCCN(C)C4)c(C)c3oc2=O)ccc1O (stereo not drawn)
[1]; [3]
  IC50: 2.64 ± 0.45 µM
[2]; [4]
  IC50: 1.3 ± 0.63 µM

## CC(C)=CCc1cc(C(=O)Nc2cc3ccc(OCC4CCCNC4)c(C)c3oc2=O)ccc1O (stereo not drawn)
[1]; [3]
  IC50: 0.79 ± 0.1 µM
[2]; [4]
  IC50: 0.6 ± 0.01 µM

## CC(C)=CCc1cc(C(=O)Nc2cc3ccc(OCC4CCN(C)C4)c(C)c3oc2=O)ccc1O (stereo not drawn)
[1]; [3]
  IC50: 1.55 ± 0.04 µM
[2]; [4]
  IC50: 0.92 ± 0.56 µM

## CC(C)=CCc1cc(C(=O)Nc2cc3ccc(OCCCN4CCNCC4)c(C)c3oc2=O)ccc1O
[1]; [3]
  IC50: 0.93 ± 0.21 µM
[2]; [4]
  IC50: 0.82 ± 0.02 µM

## Cc1c(OC2CCN(C)CC2)ccc2cc(NC(=O)NCc3ccc(Cl)cc3)c(=O)oc12
[1]; [5]
  IC50: 1.05 ± 0.07 µM
[2]; [6]
  IC50: 1.04 ± 0.07 µM

## COc1ccc(CNC(=O)Nc2cc3ccc(OC4CCN(C)CC4)c(C)c3oc2=O)cc1
[1]; [5]
  IC50: 0.65 ± 0.11 µM
[2]; [6]
  IC50: 0.68 ± 0.06 µM

## Cc1ccc(CNC(=O)Nc2cc3ccc(OC4CCN(C)CC4)c(C)c3oc2=O)cc1
[1]; [5]
  IC50: 0.55 ± 0.02 µM
[2]; [6]
  IC50: 0.56 ± 0.07 µM

## Cc1c(OC2CCN(C)CC2)ccc2cc(NC(=O)NCc3ccc(Oc4ccccc4)cc3)c(=O)oc12
[1]; [5]
  IC50: 0.38 ± 0.04 µM
[2]; [6]
  IC50: 0.23 ± 0.08 µM

## Cc1ccc(NC(=O)Nc2cc3ccc(OC4CCN(C)CC4)c(C)c3oc2=O)cc1-c1cccc(Cl)c1 [CH3, Cl, 1-(3′-chloro-6-methyl-[1,1′-biphenyl]-3-yl)-3-(8-methyl-7-((1-methylpiperidin-4-yl)oxy)-2-oxo-2H-chromen-3-yl)urea]
[1]; [7]
  IC50: 0.5 µM
[2]; [8]
  IC50: 0.44 µM

## COc1cccc(-c2cc(NC(=O)Nc3cc4ccc(OC5CCN(C)CC5)c(C)c4oc3=O)ccc2C)c1 [CH3, OMe, 1-(3′-methoxy-6-methyl-[1,1′-biphenyl]-3-yl)-3-(8-methyl-7-((1-methylpiperidin-4-yl)oxy)-2-oxo-2H-chromen-3-yl)urea]
[1]; [7]
  IC50: 0.21 µM
[2]; [8]
  IC50: 0.25 µM

## CC(C)=CCc1cc(C(=O)Nc2cc3ccc(OC4CCN(C)CC4)c(C)c3oc2=O)ccc1O [Compound 2]
[1]; [9]
  IC50: 1.09 ± 0.1 µM
[1]; [10]
  IC50: 1.09 ± 0.1 µM
[1]; Homo sapiens, MCF7, amide versus urea linkage, read-out: IC50 for MCF-3
  IC50: 1.09 µM

## Cc1c(OC2CCN(C)CC2)ccc2cc(NC(=O)Nc3ccc(Cl)cc3)c(=O)oc12 [Compound 8]
[2]; [11]
  IC50: 0.17 ± 0.01 µM

## Cc1ccc(NC(=O)Nc2cc3ccc(OC4CCN(C)CC4)c(C)c3oc2=O)cc1C [Compound 10]
[2]; [11]
  IC50: 0.31 ± 0.09 µM

## Cc1c(OCCC2CCCCN2)ccc2cc(NC(=O)Nc3ccc(Cl)cc3)c(=O)oc12 (stereo not drawn) [Compound 11]
[2]; [11]
  IC50: 0.21 ± 0.06 µM

## COc1ccc(C(=O)Nc2cc3ccc(OC4CCN(C)CC4)c(C)c3oc2=O)cc1CC=C(C)C [Compound 16, 4-methoxy-N-(8-methyl-7-(1-methylpiperidin-4-yloxy)-2-oxo-2H-chromen-3-yl)-3-(3-methylbut-2-enyl)benzamide]
[1]; [9]
  IC50: 1.58 ± 0.09 µM
[2]; [12]
  IC50: 1.41 ± 0.2 µM

## CCCCOc1ccc(C(=O)Nc2cc3ccc(OC4CCN(C)CC4)c(C)c3oc2=O)cc1CC=C(C)C [Compound 17, 4-butoxy-N-(8-methyl-7-(1-methylpiperidin-4-yloxy)-2-oxo-2H-chromen-3-yl)-3-(3-methylbut-2-enyl)benzamide]
[1]; [9]
  IC50: 1.44 ± 0.05 µM
[2]; [12]
  IC50: 1.4 ± 0.07 µM

## C#CCOc1ccc(C(=O)Nc2cc3ccc(OC4CCN(C)CC4)c(C)c3oc2=O)cc1CC=C(C)C [Compound 18, N-(8-methyl-7-(1-methylpiperidin-4-yloxy)-2-oxo-2H-chromen-3-yl)-3-(3-methylbut-2-enyl)-4-(prop-2-ynyloxy)benzamide]
[1]; [9]
  IC50: 1.12 ± 0.16 µM
[2]; [12]
  IC50: 1.4 ± 0.11 µM

## CC(C)=CCc1cc(C(=O)Nc2cc3ccc(OC4CCN(C)CC4)c(C)c3oc2=O)ccc1OCCN(C)C [Compound 23, 4-(2-(dimethylamino)ethoxy)-N-(8-methyl-7-(1-methylpiperidin-4-yloxy)-2-oxo-2H-chromen-3-yl)-3-(3-methylbut-2-enyl)benzamide]
[1]; [10]
  IC50: 0.72 ± 0.08 µM
[2]; [13]
  IC50: 0.33 µM

## CC(C)=CCc1cc(C(=O)Nc2cc3ccc(OC4CCN(C)CC4)c(C)c3oc2=O)ccc1OCCCN(C)C [Compound 24, 4-(3-(dimethylamino)propoxy)-N-(8-methyl-7-(1-methylpiperidin-4-yloxy)-2-oxo-2H-chromen-3-yl)-3-(3-methylbut-2-enyl)benzamide]
[1]; [10]
  IC50: 0.46 ± 0.05 µM
[2]; [13]
  IC50: 0.25 ± 0.02 µM

## CC(C)=CCc1cc(C(=O)Nc2cc3ccc(OC4CCN(C)CC4)c(C)c3oc2=O)ccc1OC1CCN(C)CC1 [Compound 25, N-(8-methyl-7-(1-methylpiperidin-4-yloxy)-2-oxo-2H-chromen-3-yl)-3-(3-methylbut-2-enyl)-4-(1-methylpiperidin-4-yloxy)benzamide]
[1]; [10]
  IC50: 0.47 ± 0.081 µM
[2]; [13]
  IC50: 0.21 µM

## CCNCCCOc1ccc2cc(NC(=O)c3ccc(O)c(CC=C(C)C)c3)c(=O)oc2c1C [Compound 68a, N-(7-(3-(ethylamino)propoxy)-8-methyl-2-oxo-2H-chromen-3-yl)-4-hydroxy-3-(3-methylbut-2-en-1-yl)benzamide]
[1]; [14]
  IC50: 0.98 ± 0.35 µM
[2]; [15]
  IC50: 0.72 ± 0.34 µM

## CCN(C)CCCOc1ccc2cc(NC(=O)c3ccc(O)c(CC=C(C)C)c3)c(=O)oc2c1C [Compound 68b, N-(7-(3-(ethyl(methyl)amino)propoxy)-8-methyl-2-oxo-2H-chromen-3-yl)-4-hydroxy-3-(3-methylbut-2-en-1-yl)benzamide]
[1]; [14]
  IC50: 2.19 ± 0.5 µM
[2]; [15]
  IC50: 0.73 ± 0.06 µM

## CCN(CC)CCCOc1ccc2cc(NC(=O)c3ccc(O)c(CC=C(C)C)c3)c(=O)oc2c1C [Compound 68c]
[1]; Table 4, alkylamino analogues, read-out: MCF-7
  IC50: 6.39 ± 0.04 µM
[2]; Table 4, alkylamino analogues, read-out: SKBr3
  IC50: 4.9 ± 0.42 µM

## CCCNCCCOc1ccc2cc(NC(=O)c3ccc(O)c(CC=C(C)C)c3)c(=O)oc2c1C [Compound 68d, 4-hydroxy-N-(8-methyl-2-oxo-7-(3-(propylamino)propoxy)-2H-chromen-3-yl)-3-(3-methylbut-2-en-1-yl)benzamide]
[1]; [14]
  IC50: 0.98 µM
[2]; [15]
  IC50: 0.99 ± 0.03 µM

## CC(C)=CCc1cc(C(=O)Nc2cc3ccc(OCCCNCC(C)C)c(C)c3oc2=O)ccc1O [Compound 68f, 4-hydroxy-N-(7-(3-(isobutylamino)propoxy)-8-methyl-2-oxo-2H-chromen-3-yl)-3-(3-methylbut-2-en-1-yl)benzamide]
[1]; [14]
  IC50: 1.32 ± 0.06 µM
[2]; [15]
  IC50: 1.03 ± 0.02 µM

## CC(C)=CCc1cc(C(=O)Nc2cc3ccc(OCCCNC(C)C)c(C)c3oc2=O)ccc1O [Compound 68g, 4-hydroxy-N-(7-(3-(isopropylamino)propoxy)-8-methyl-2-oxo-2H-chromen-3-yl)-3-(3-methylbut-2-en-1-yl)benzamide]
[1]; [14]
  IC50: 0.74 ± 0.16 µM
[2]; [15]
  IC50: 0.75 ± 0.26 µM

## CC(C)=CCc1cc(C(=O)Nc2cc3ccc(OCCCN(C)C(C)C)c(C)c3oc2=O)ccc1O [Compound 68h, 4-hydroxy-N-(7-(3-(isopropyl(methyl)amino)propoxy)-8-methyl-2-oxo-2H-chromen-3-yl)-3-(3-methylbut-2-en-1-yl)benzamide]
[1]; [14]
  IC50: 1.05 ± 0.06 µM
[2]; [15]
  IC50: 0.57 ± 0.13 µM

## CC(C)=CCc1cc(C(=O)Nc2cc3ccc(OCCCN(C(C)C)C(C)C)c(C)c3oc2=O)ccc1O [Compound 68i, N-(7-(3-(diisopropylamino)propoxy)-8-methyl-2-oxo-2H-chromen-3-yl)-4-hydroxy-3-(3-methylbut-2-en-1-yl)benzamide]
[1]; [14]
  IC50: 1.31 ± 0.39 µM
[2]; [15]
  IC50: 1.6 ± 0.02 µM

## CC(C)=CCc1cc(C(=O)Nc2cc3ccc(OCCCNC(C)(C)C)c(C)c3oc2=O)ccc1O [Compound 68j, N-(7-(3-(tert-butylamino)propoxy)-8-methyl-2-oxo-2H-chromen-3-yl)-4-hydroxy-3-(3-methylbut-2-en-1-yl)benzamide]
[1]; [14]
  IC50: 0.95 ± 0.1 µM
[2]; [15]
  IC50: 0.66 ± 0.06 µM

## CC(C)=CCc1cc(C(=O)Nc2cc3ccc(OCCCN(C)C(C)(C)C)c(C)c3oc2=O)ccc1O [Compound 68k, N-(7-(3-(tert-butyl(methyl)amino)propoxy)-8-methyl-2-oxo-2H-chromen-3-yl)-4-hydroxy-3-(3-methylbut-2-en-1-yl)benzamide]
[1]; [14]
  IC50: 1.14 ± 0.11 µM
[2]; [15]
  IC50: 0.88 ± 0.1 µM

## CC(C)=CCc1cc(C(=O)Nc2cc3ccc(OC4CCN(C)CC4)c(C)c3oc2=O)ccc1O [drawing 134]
[1]; [3]
  IC50: 1.09 ± 0.1 µM
